# From patent US7384914B2 (Emisphere Technologies, Inc., priority 2003, dated 2008)
# Tests used:
# [1] = Pharmacokinetic studies of 4-CNAB after oral administration in rats; format: in vivo
# [2] = 14-day oral repeated dose toxicity study in monkeys; details: rhesus monkey, in vivo, 14 days
# Protocol: In toxicology studies, 4-CNAB doses from 400 mg to 2000 mg were evaluated.
# [3] = system: primary molecular targets; experiment: Receptor binding screening assays
# [4] = Pharmacokinetic studies of 4-CNAB after oral administration in mice; format: in vivo
# [5] = Pharmacokinetic studies of 4-CNAB after oral administration in monkeys; format: in vivo
# [6] = Open-label single-dose crossover study of oral Insulin/4-CNAB in type 2 diabetic subjects (fasting / standard meal); format: in vivo, human
# From the text: In the first part of the study, twenty-four human diabetic subjects (patients) of age 35-70 years, with elevated fasting blood glucose levels but in otherwise good general health on the basis of a medical history, physical examination and clinical laboratory studies, participated in the study and were studied in the overnight-fasted state on two occasions, separated by an interval of at least 7 days.
# Genotoxicity studies = details: four genotoxicity studies
smiles,measurement,setting,value
"O=C(O)CCCNC(=O)c1ccc(Cl)cc1O [4-CNAB, monosodium N-(4-chlorosalicyloyl)-4-aminobutyrate]",4-CNAB absorption following oral administration,[1],absorbed rapidly
same,highest proposed dose of 2000 mg 4-CNAB in man (<30 mg/kg) lower than the NOAEL in monkeys,[2],12-16 fold
same,activity in primary molecular targets in receptor binding screening assays,[3],did not demonstrate potential activity
same,4-CNAB absorption following oral administration,[4],absorbed rapidly
same,4-CNAB absorption following oral administration,[5],absorbed rapidly
same,tolerability of 4-CNAB,[6],well tolerated
same,time of 4-CNAB concentration peak post administration,[6]; oral capsules,about 30 minutes
same,genotoxicity findings,Genotoxicity studies,no positive findings
